Article PMC10507085, “Pharmacological inhibition of TBK1/IKKε blunts immunopathology in a murine model of SARS-CoV-2 infection” (Nature Communications, 2023)

Assays:
Experiment in all cases: biochemical
Design in all cases: KINOMEscan competition binding, DNA-tagged kinase against immobilised ligand, qPCR read-out
Conditions in all cases: read-out: Percent Control
[1] = biological target: HIPK3 (Homo sapiens, UniProt Q9H422)
[2] = biological target: ALK (Homo sapiens, UniProt Q9UM73)
[3] = biological target: T1, RSK4(Kin.Dom.2-C-terminal) (Homo sapiens, UniProt Q9UK32)
T1 construct: gene RPS6KA6; Kin.Dom.2 C-terminal

[4] = biological target: DAPK2 (Homo sapiens, UniProt Q9UIK4)
[5] = biological target: MAP4K4 (Homo sapiens, UniProt O95819)
[6] = biological target: ULK1 (Homo sapiens, UniProt O75385)
[7] = biological target: STK25 (Homo sapiens, UniProt O00506)
[8] = biological target: CAMKK2 (Homo sapiens, UniProt Q96RR4)
[9] = biological target: PRKCE (Homo sapiens, UniProt Q02156)
[10] = biological target: PIP4K2B (Homo sapiens, UniProt P78356)
[11] = biological target: CSNK2A2 (Homo sapiens, UniProt P19784)
[12] = biological target: TNNI3K (Homo sapiens, UniProt Q59H18)
[13] = biological target: PHKG1 (Homo sapiens, UniProt Q16816)
[14] = biological target: HCK (Homo sapiens, UniProt P08631)
[15] = biological target: MAP4K5 (Homo sapiens, UniProt Q9Y4K4)
[16] = biological target: CHEK2 (Homo sapiens, UniProt O96017)
[17] = biological target: YES1 (Homo sapiens, UniProt P07947)
[18] = biological target: EIF2AK1 (Homo sapiens, UniProt Q9BQI3)
[19] = biological target: NEK6 (Homo sapiens, UniProt Q9HC98)
[20] = biological target: PIP5K1C (Homo sapiens, UniProt O60331)

Sequence of DAPK2 (Q9UIK4 whole entry): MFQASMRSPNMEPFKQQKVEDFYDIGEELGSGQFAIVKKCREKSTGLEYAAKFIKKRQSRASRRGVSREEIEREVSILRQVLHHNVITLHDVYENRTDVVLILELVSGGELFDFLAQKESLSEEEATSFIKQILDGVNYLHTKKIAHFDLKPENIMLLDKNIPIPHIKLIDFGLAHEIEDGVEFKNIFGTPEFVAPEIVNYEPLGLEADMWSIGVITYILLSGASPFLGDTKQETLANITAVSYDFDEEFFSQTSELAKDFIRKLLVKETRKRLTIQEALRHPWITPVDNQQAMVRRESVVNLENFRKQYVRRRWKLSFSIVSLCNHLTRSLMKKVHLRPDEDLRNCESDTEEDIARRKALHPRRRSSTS
Sequence of CSNK2A2 (P19784 whole entry): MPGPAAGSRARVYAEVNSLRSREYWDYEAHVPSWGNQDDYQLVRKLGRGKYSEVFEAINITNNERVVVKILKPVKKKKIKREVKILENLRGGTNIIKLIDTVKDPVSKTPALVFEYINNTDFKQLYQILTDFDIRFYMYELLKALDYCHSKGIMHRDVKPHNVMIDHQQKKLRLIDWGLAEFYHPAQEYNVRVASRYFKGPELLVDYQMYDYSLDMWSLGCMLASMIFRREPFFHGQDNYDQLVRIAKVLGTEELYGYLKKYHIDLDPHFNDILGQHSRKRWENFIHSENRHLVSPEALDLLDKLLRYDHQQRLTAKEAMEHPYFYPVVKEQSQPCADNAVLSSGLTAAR
Sequence of HIPK3 (Q9H422 whole entry): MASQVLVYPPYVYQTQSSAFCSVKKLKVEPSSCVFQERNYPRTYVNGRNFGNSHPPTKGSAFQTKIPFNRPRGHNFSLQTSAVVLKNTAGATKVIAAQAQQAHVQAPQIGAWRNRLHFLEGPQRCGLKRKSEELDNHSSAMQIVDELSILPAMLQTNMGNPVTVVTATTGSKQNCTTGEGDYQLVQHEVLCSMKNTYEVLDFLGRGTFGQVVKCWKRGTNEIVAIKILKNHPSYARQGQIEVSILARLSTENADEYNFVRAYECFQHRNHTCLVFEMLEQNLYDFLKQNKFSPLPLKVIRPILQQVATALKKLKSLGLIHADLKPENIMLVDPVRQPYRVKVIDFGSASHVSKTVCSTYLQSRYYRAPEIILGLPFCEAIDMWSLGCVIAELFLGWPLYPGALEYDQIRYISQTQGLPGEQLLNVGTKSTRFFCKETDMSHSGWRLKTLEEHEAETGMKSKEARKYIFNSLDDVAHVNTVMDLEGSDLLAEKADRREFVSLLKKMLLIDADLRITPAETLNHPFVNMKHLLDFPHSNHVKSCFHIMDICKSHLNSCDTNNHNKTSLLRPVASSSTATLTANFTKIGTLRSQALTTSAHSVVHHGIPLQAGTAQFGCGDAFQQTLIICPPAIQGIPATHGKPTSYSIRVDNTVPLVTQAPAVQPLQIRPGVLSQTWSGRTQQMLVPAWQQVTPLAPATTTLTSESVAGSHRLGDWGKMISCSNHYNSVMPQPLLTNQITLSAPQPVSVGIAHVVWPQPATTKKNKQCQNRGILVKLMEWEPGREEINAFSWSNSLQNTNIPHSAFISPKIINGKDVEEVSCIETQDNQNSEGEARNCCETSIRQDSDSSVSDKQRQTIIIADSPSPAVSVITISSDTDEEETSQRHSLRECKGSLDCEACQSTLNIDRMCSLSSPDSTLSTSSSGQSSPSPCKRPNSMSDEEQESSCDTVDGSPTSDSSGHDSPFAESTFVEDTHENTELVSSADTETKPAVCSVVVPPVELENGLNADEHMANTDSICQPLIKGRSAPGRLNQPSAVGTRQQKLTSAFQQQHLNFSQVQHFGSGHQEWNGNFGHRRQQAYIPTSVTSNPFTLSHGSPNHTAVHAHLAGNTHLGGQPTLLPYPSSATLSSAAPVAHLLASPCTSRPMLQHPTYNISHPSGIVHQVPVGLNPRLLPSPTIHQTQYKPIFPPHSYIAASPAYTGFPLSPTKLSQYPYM
Sequence of HCK (P08631 whole entry): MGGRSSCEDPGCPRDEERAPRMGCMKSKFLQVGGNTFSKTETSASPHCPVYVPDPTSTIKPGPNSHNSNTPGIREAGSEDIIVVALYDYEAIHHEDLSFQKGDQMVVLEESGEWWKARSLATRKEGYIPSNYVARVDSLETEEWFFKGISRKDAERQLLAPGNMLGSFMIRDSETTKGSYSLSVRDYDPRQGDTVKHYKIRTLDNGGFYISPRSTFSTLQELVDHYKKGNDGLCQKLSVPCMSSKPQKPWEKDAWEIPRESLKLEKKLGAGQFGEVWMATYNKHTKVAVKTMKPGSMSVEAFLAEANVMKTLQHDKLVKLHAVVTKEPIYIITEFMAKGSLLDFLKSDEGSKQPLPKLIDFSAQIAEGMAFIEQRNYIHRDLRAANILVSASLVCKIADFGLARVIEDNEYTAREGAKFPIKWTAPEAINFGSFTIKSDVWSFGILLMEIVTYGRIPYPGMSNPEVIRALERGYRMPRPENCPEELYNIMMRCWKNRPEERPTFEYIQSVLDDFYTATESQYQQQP
Sequence of ALK (Q9UM73 whole entry): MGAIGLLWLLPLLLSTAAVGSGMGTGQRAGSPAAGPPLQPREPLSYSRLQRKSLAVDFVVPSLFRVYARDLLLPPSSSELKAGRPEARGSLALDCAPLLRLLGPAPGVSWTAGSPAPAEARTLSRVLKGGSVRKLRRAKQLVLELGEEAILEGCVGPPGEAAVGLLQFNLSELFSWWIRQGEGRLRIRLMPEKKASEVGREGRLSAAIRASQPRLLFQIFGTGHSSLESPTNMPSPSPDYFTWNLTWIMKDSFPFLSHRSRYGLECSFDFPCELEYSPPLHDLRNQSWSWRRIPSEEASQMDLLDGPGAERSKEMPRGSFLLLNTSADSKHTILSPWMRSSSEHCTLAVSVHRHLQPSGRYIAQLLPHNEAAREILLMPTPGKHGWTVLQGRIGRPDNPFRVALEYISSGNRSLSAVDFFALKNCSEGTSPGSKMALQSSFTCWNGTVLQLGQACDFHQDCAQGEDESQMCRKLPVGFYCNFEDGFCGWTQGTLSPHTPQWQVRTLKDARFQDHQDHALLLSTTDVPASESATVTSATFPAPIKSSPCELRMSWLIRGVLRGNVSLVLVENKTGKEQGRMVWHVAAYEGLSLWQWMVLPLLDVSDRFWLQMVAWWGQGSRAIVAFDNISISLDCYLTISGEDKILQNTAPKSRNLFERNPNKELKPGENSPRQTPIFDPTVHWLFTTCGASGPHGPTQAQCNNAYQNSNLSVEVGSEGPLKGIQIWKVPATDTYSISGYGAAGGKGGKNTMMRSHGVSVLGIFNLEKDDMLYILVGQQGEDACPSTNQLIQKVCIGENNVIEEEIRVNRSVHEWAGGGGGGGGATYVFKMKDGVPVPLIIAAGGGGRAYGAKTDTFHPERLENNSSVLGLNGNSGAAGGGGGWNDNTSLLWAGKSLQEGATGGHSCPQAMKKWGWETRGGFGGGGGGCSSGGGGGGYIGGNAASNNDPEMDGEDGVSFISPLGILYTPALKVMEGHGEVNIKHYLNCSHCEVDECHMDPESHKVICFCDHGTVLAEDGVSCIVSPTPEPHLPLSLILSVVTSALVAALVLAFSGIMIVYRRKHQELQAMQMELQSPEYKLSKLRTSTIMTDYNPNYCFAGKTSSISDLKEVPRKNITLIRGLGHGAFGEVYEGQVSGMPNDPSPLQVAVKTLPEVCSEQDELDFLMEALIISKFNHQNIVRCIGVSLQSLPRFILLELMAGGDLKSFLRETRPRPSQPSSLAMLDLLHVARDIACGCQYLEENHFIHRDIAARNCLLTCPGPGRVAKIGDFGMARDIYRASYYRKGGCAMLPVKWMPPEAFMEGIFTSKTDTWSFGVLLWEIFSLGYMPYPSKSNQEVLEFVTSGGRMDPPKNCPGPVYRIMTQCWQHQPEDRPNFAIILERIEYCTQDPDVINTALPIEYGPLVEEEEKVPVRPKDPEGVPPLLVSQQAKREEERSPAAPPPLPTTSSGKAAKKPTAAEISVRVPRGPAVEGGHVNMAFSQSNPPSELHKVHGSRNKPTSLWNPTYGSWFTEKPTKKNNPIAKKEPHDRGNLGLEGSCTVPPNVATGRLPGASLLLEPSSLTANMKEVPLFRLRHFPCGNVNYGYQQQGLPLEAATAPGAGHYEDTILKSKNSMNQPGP
T1 sequence (Q9UK32 whole entry): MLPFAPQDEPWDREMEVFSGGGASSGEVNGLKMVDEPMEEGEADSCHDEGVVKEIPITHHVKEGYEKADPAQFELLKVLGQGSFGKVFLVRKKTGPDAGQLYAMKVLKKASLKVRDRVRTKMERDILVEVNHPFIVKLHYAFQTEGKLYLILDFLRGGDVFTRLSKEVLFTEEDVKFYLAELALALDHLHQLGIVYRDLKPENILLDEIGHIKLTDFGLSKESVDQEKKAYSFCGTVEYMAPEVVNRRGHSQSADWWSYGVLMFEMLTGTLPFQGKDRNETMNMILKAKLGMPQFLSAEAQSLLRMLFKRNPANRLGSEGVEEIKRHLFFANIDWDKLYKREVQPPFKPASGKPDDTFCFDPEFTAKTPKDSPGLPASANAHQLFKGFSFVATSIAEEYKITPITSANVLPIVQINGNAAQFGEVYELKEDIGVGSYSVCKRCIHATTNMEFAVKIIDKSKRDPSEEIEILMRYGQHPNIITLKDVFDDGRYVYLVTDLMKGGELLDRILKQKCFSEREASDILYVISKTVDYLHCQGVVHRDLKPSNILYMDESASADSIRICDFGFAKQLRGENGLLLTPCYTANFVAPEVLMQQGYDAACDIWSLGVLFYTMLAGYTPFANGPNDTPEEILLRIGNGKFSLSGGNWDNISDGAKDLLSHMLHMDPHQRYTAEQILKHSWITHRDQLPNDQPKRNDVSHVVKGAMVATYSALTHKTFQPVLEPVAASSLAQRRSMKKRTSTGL

Oc1ccc(C2=Cc3ccc(O)cc3OC2)cc1 [compound 1, idronoxil]
remaining binding at 10 µM [1]: 33%
remaining binding at 10 µM [2]: 68%
remaining binding at 10 µM [3]: 76%
remaining binding at 10 µM [4]: 56%
remaining binding at 10 µM [5]: 47%
remaining binding at 10 µM [6]: 89%
remaining binding at 10 µM [7]: 77%
remaining binding at 10 µM [8]: 68%
remaining binding at 10 µM [9]: 92%
remaining binding at 10 µM [10]: 100%
remaining binding at 10 µM [11]: 35%
remaining binding at 10 µM [12]: 99%
remaining binding at 10 µM [13]: 57%
remaining binding at 10 µM [14]: 83%
remaining binding at 10 µM [15]: 70%
remaining binding at 10 µM [16]: 67%
remaining binding at 10 µM [17]: 68%
remaining binding at 10 µM [18]: 88%
remaining binding at 10 µM [19]: 100%
remaining binding at 10 µM [20]: 25%
